Experimental data taken from patent US9034899B2, “Aryl, heteroaryl, and heterocycle substituted tetrahydroisoquinolines and use thereof” (Albany Molecular Research, Inc., priority 2009, dated 2015).

What was measured:
[1] = target: hDAT (Homo sapiens (Human), UniProt Q01959); experiment: DAT radioligand binding assay ([125I]RTI-55, HEK-293 membranes); settings: (+)-enantiomers; read-out: DAT IC50
Protocol: (§1) Recombinant HEK-293 cells expressing either the hSERT, hDAT, or hNET proteins were harvested from T-175 flasks as follows. The medium was removed from the flasks and the cells rinsed with HBSS without Ca and without Mg. The cells were then incubated for 5-10 minutes in 10 mM Tris-Cl, pH 7.5, 5 mM EDTA before the cells were lifted with a combination of pipetting and scraping, as needed. The cell suspension was collected into centrifuge bottles and homogenized for 30 seconds with a Polytron homogenizer. The suspension was centrifuged for 30 minutes at 32,000×g, 4° C. The supernatant was decanted and the pellet resuspended and homogenized in 50 mM Tris-Cl, pH 7.5, 1 mM EDTA for 10 seconds. The suspension was then centrifuged again for 30 minutes at 32,000×g, 4° C. The supernatant was decanted and the pellet resuspended in 50 mM Tris-Cl, pH 7.5, 1 mM EDTA and briefly homogenized. A Bradford assay (Bio-rad) was performed and the membrane preparation diluted to 2 mg/ml with 50 mM Tris-Cl, pH 7.5, 1 mM EDTA. Aliquots were prepared, and then frozen and stored at −80° C.
Compounds were dissolved in 100% DMSO at a concentration 100 times the desired highest assay concentration, serially diluted 1:3 in 100% DMSO, and 0.4 μl/well of each solution was dispensed to a Nunc polypropylene, round bottom, 384-well plate. 100% inhibition is defined with 0.4 μl/well of 1 mM GBR-12935 dissolved in DMSO. 20 ul/well of a 2× membrane preparation (12.5 μg/ml in 30 mM sodium phosphate buffer, pH 7.9 at 4° C.) and 20 μl/well of a 2× radioligand solution ([…] [^125I]RTI-55 in 30 mM sodium phosphate buffer, pH 7.9 at 4° C.) were added to the well and the reaction incubated for 1 hour at room temperature. The contents of the assay plate were then transferred to a Millipore MultiscreenHTS GF/B filter plate which was pretreated with 0.5% PEI for at least one hour. The plate was vacuum-filtered and washed with 7 washes of 100 μl/well 50 mM Tris-Cl, pH 7.5, 120 mM NaCl, 5 mM KCl chilled to 4° C. The filtration and washing were completed in less than 90 seconds. The plates were air-dried overnight, 12 μl/well of MicroScint scintillation fluid added, and the plates counted in a Trilux.
(§2) The raw data was normalized to percent inhibition using control wells defining 0% (DMSO only) and 100% (selective inhibitor) inhibition which were run on each plate. Each plate was run in triplicate, and the concentration response curve thus generated was fit using the four-parameter dose response equation, Y=Bottom+(Top-Bottom)/(1+10^((LogIC50−X)*HillSlope)) in order to determine the IC50 value for each compound. The radioligand concentration chosen for each assay corresponds to the Kd concentration determined through saturation binding analysis for each assay.

[2] = target: hNET (Homo sapiens (Human), UniProt P23975); experiment: NET radioligand binding assay ([3H]nisoxetine, HEK-293 membranes); settings: (+)-enantiomers
Protocol: as §1
Compounds were dissolved in 100% DMSO at a concentration 100 times the desired highest assay concentration, serially diluted 1:3 in 100% DMSO, and 1.0 μl/well of each solution was dispensed to a Nunc polypropylene, round bottom, 384-well plate. 100% inhibition is defined with 1.0 μl/well of 10 mM desipramine dissolved in DMSO. 50 μl/well of a 2× membrane preparation (0.4 mg/ml in 50 mM Tris-Cl, pH 7.5, 120 mM NaCl, 5 mM KCl) and 50 μl/well of a 2× radioligand solution (4 nM [^3H]nisoxetine in 50 mM Tris-Cl, pH 7.5, 120 mM NaCl, 5 mM KCl) were added to the well and the reaction incubated for 1 hour at room temperature. The contents of the assay plate were then transferred to a Millipore MultiscreenHTS GF/B filter plate which was pretreated with 0.5% PEI for at least one hour. The plate was vacuum filtered and washed with 7 washes of 100 μl/well 50 mM Tris-Cl, pH 7.5, 120 mM NaCl, 5 mM KCl chilled to 4° C. The filtration and washing were completed in less than 90 seconds. The plates were air-dried overnight, 12 μl/well of MicroScint scintillation fluid added, and the plates counted in a Trilux.
as §2

[3] = system: SERT; experiment: Occupancy assay, ex vivo binding in brain tissue, SERT
From the text: (§3) The general procedure for brain tissue collection and transporter occupancy assessment is briefly described as follows. Mice were sacrificed by asphyxiation in CO2, rats by decapitation and dogs by IV injection of euthanasia solution. For mice and rats, after the brains were removed from the skull, the forebrain tissue (removal of the brainstem and cerebellum) was used for SERT, NET, and DAT occupancy assessment. In dogs, the striatum was dissected for DAT occupancy and the remaining forebrain tissue (without the striatum, brainstem, and cerebellum) was used for SERT and NET occupancy assessment. The brain tissues were frozen in chilled isopentane and stored at −80° C. until homogenization.
(§4) The brain tissues were thawed and then homogenized using a polytron homogenizer (Kinematica). Sample aliquots were frozen immediately and stored at −80° C. Protein content was measured for each sample using a Coomassie protein assay kit (Pierce).
(§5) On the day of ex vivo binding for occupancy assessment, frozen sample aliquots were thawed and needle homogenized, and 100 μg of the tissue was incubated for SERT, NET, and DAT binding under assay conditions summarized in Table 2. After incubation, the reactions were terminated by the addition of ice-cold assay buffer and rapid filtration through a Brandel Cell Harvester using FPXLR-196 filters. The filters were washed twice with ice-cold incubation buffer, punched into a clear plate prior to the addition of 200 ul scintillation fluid per well. Radioligand was measured using a Wallac Microbeta liquid scintillation counter.
The specific binding was calculated by subtracting the value of the non-specific binding from that of the total binding in each sample. The percent occupancy was calculated as (1−specific binding in drug treated/specific binding in vehicle treated)×100%. For estimation of in vivo occupancy EC50 (total plasma concentration of compound producing 50% occupancy), plots of occupancy values versus plasma concentrations were fitted to a one-site binding model using nonlinear regression according to the following equation: % Occupancy=Emax*C/(EC50+C) where Emax is the maximal specific binding, C is the drug concentration, and EC50 is the total plasma concentration required for 50% binding site occupancy. Nonlinear regression was performed using GraphPad Prism version 3.00 (GraphPad Software, San Diego, Calif.).

[4] = system: DAT; experiment: Occupancy assay, ex vivo binding in brain tissue, DAT
From the text: as §3, §4
as §5, with “After incubation, the reactions were terminated by the addition of ice-cold assay buffer and rapid filtration through a Brandel Cell Harvester using FPXLR-196 filters.” left out
The specific binding was calculated by subtracting the value of the non-specific binding from that of the total binding in each sample. The percent occupancy was calculated as (1−specific binding in drug treated/specific binding in vehicle treated)×100%. […] Nonlinear regression was performed using GraphPad Prism version 3.00 (GraphPad Software, San Diego, Calif.).

Chain of hNET (P23975 whole entry): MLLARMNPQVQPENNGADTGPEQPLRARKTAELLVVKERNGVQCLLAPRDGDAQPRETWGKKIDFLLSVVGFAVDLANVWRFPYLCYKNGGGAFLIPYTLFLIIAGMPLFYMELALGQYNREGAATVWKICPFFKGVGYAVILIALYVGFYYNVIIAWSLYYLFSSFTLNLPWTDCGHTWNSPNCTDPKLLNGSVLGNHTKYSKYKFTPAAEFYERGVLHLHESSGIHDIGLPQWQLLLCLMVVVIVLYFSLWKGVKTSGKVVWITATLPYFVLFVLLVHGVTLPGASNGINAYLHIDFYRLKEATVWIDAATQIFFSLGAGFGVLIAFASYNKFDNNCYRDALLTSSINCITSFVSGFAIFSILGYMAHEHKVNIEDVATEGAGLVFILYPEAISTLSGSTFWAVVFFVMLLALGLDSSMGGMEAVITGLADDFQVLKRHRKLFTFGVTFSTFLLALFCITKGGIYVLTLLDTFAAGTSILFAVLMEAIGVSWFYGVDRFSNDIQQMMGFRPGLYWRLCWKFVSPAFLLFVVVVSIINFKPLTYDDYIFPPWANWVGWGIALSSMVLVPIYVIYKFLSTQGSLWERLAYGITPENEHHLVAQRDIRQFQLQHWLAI
Chain of hDAT (Q01959 whole entry): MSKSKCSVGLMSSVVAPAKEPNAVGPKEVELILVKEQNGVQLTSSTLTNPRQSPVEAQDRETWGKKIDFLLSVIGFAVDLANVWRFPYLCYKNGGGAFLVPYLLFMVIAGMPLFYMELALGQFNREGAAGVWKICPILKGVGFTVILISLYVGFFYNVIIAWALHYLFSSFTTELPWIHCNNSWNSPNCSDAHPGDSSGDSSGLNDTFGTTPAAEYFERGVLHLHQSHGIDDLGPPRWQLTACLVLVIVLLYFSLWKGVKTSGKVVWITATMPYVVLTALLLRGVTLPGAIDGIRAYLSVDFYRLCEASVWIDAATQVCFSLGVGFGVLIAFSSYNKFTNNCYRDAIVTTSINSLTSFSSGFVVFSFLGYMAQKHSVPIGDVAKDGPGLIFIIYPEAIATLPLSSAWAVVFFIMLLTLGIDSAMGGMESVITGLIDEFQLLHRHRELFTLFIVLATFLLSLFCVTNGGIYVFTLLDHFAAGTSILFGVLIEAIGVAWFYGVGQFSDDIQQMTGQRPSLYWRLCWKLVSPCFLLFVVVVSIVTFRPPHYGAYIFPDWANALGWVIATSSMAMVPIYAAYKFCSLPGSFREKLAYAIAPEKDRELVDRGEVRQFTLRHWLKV

SMILES | IC50 [1] [nM] | IC50 [2] [nM] | SERT Occupancy % ([3]; dose 1 mg/kg, time point 1 h) [%] | DAT Occupancy % ([4]; dose 1 mg/kg, time point 1 h) [%] | SERT Occupancy % ([3]; dose 1 mg/kg, time point 3 h) [%] | DAT Occupancy % ([4]; dose 1 mg/kg, time point 3 h) [%] | SERT Occupancy % ([3]; dose 3 mg/kg, time point 3 h) [%] | DAT Occupancy % ([4]; dose 3 mg/kg, time point 3 h) [%]
CC1(C)NCC(c2ccc(Cl)c(Cl)c2)c2ccc(-c3cccnn3)cc21 (single isomer, unassigned) [Example 9, 4-(3,4-dichlorophenyl)-1,1-dimethyl-7-(pyridazin-3-yl)-1,2,3,4-tetrahydroisoquinoline] | 1.8 | 133 | 60 | 71 |  |  |  | 
FC(F)Oc1ccc(-c2ccc3c(c2)CNCC3c2ccc(Cl)c(Cl)c2)nn1 (stereo not shown) [Example 12, 4-(3,4-dichlorophenyl)-7-(6-(difluoromethoxy)pyridazin-3-yl)-1,2,3,4-tetrahydroisoquinoline] | 50.2 | 18.8 |  |  | 82 | 15 |  | 
CC1(C)NCC(c2ccc(Cl)c(Cl)c2)c2ccc(-c3ccc(N)nn3)cc21 (stereo not shown) [Example 13, 4-(3,4-dichlorophenyl)-7-(6-aminopyridazin-3-yl)-1,1-dimethyl-1,2,3,4-tetrahydroisoquinoline] | 2.4 | 97 |  |  |  |  | 55 | 53
Cc1noc(C)c1-c1ccc2c(c1)CNCC2c1ccc(Cl)c(Cl)c1 (stereo not shown) [Example 25, 4-(4-(3,4-dichlorophenyl)-1,2,3,4-tetrahydroisoquinolin-7-yl)-3,5-dimethylisoxazole] | 47.3 | 195 |  |  | 50 | 0 |  | 
Clc1ccc(C2CNCc3cc(-c4cccnn4)ccc32)cc1Cl (stereo not shown) [Example 33, 4-(3,4-dichlorophenyl)-7-(pyridazin-3-yl)-1,2,3,4-tetrahydroisoquinoline] | 15.4 | 26.4 | 49 | 8 |  |  |  | 
Nc1ccc(-c2ccc3c(c2)CNCC3c2ccc(Cl)c(Cl)c2)nn1 (stereo not shown) [Example 34, 6-(4-(3,4-dichlorophenyl)-1,2,3,4-tetrahydroisoquinolin-7-yl)pyridazin-3-amine] | 7.1 | 22.9 | 10 | 0 |  |  |  | 
CC1(C)NCC(c2ccc(Cl)c(Cl)c2)c2ccc(-c3ccc4ncnn4c3)cc21 (stereo not shown) [Example 40, 4-(3,4-dichlorophenyl)-7-([1,2,4]triazolo[1,5-a]pyridin-6-yl)-1,1-dimethyl-1,2,3,4-tetrahydroisoquinoline] | 2.1 | 51 |  |  |  |  | 74 | 78
